This passage reports IC50 results from the Kinase Knowledgebase extract (Sharma et al. 2016).

For the first assay, the target named is PIK3CA (human) (UniProt P42336). Description: Assessment of PIK3CA Kinase Activity.
PIK3CA (human), sequence (P42336 whole entry, looked up): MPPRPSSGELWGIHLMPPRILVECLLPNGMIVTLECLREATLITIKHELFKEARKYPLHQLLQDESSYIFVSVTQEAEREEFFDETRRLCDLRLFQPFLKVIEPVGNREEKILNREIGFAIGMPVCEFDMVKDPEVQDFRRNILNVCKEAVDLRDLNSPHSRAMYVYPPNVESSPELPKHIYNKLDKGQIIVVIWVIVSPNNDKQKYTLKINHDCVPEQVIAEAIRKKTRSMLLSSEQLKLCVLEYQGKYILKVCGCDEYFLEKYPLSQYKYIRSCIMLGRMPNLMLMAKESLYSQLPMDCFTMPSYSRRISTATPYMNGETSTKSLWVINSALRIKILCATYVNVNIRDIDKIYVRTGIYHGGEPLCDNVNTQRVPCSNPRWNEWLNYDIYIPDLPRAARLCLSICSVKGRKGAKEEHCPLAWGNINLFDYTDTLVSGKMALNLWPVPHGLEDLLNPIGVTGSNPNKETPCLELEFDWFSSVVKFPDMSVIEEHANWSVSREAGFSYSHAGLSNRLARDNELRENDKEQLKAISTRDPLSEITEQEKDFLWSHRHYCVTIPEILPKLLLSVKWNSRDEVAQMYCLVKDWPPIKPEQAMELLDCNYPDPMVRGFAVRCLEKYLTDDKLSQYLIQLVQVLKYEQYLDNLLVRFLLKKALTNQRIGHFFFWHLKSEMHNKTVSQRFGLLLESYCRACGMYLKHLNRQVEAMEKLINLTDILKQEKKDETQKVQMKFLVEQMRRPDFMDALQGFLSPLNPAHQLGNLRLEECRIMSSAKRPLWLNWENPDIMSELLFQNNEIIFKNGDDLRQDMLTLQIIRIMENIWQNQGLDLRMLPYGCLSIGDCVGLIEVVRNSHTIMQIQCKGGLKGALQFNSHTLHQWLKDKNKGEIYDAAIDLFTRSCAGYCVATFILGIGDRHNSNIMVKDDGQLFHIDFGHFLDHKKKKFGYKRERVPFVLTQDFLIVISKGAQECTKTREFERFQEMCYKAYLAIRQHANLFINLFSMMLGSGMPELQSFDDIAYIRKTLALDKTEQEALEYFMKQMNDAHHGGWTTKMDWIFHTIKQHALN
On to `CCN1CCc2c(nc(-c3ccc(NC(=O)Nc4ccccc4)cc3)nc2N2C3CCC2COC3)C1`, for which the half-inhibitory concentration (IC50) came out at 917 nM.

`CCN1CCc2c(nc(-c3ccc(NC(=O)Nc4ccc(CN(C)C)cc4)cc3)nc2N2C3CCC2COC3)C1` had a half-inhibitory concentration (IC50) of 884 nM.

`CCN1CCc2c(nc(-c3ccc(NC(=O)Nc4ccncc4)cc3)nc2N2CC3CCC(C2)O3)C1` had an IC50 of 153 nM.

For the compound `CCN1CCc2c(nc(-c3ccc(NC(=O)Nc4ccc(CN5CCCC5)cc4)cc3)nc2N2C3CCC2COC3)C1`, the 50% inhibitory concentration (IC50) worked out at 737 nM.

In the case of `O=C(Nc1ccncc1)Nc1ccc(-c2nc3c(c(N4C5CCC4COC5)n2)CCN(CC(F)(F)F)C3)cc1`, the IC50 amounted to 1710 nM.

For the compound `CCN1CCc2c(nc(-c3ccc(NC(=O)Nc4ccc(C(F)(F)F)cc4)cc3)nc2N2C3CCC2COC3)C1`, the IC50 turned out to be 3010 nM.

The compound `CN1CCN(c2ccc(NC(=O)Nc3ccc(-c4nc5c(c(N6C7CCC6COC7)n4)CCN(CC(F)(F)F)C5)cc3)cc2)CC1` had an IC50 of 1340 nM.

`CCN1CCc2c(nc(-c3ccc(NC(=O)Nc4ccc(C(=O)N(C)C)cc4)cc3)nc2N2C3CCC2COC3)C1` returned an IC50 of 554 nM.

On to `CCN1CCc2c(nc(-c3ccc(NC(=O)Nc4ccc(CN5CCN(C)CC5)cc4)cc3)nc2N2C3CCC2COC3)C1`, for which the IC50 was determined as 1280 nM.

Take `CN1CCc2c(nc(-c3ccc(NC(=O)Nc4ccncc4)cc3)nc2N2C3CCC2COC3)C1`: the IC50 was determined as 2770 nM. This IC50 is about 2.2-fold higher than that of the compound before.

In turn, `CCN1CCc2c(nc(-c3ccc(NC(=O)Nc4ccc(C(=O)NC(C)C)cc4)cc3)nc2N2C3CCC2COC3)C1` returned an IC50 of 528 nM.

`CCN1CCc2c(nc(-c3ccc(NC(=O)Nc4ccc(C(=O)NC)cc4)cc3)nc2N2C3CCC2COC3)C1` registered a concentration for half-maximal inhibition (IC50) of 861 nM.

Consider `CCN1CCc2c(nc(-c3ccc(NC(=O)Nc4ccc(C(=O)N5CCN(C)CC5)cc4)cc3)nc2N2C3CCC2COC3)C1`, for which the 50% inhibitory concentration (IC50) turned out to be 211 nM.

Regarding `CC(C)N1CCc2c(nc(-c3ccc(NC(=O)Nc4ccncc4)cc3)nc2N2C3CCC2COC3)C1`, the IC50 is 2470 nM.

Consider `CCN1CCc2c(nc(-c3ccc(NC(=O)Nc4ccc(C#N)cc4)cc3)nc2N2C3CCC2COC3)C1`, for which the half-inhibitory concentration (IC50) amounted to 1650 nM.

For the compound `CCN1CCc2c(nc(-c3ccc(NC(=O)Nc4ccc(C(=O)N5CCCC5)cc4)cc3)nc2N2C3CCC2COC3)C1`, the IC50 stood at 220 nM.

Consider `CCN1CCc2c(nc(-c3ccc(NC(=O)Nc4ccc(OCCN(C)C)cc4)cc3)nc2N2C3CCC2COC3)C1`, for which the IC50 was found to be 1220 nM.

Take `CCN1CCc2c(nc(-c3ccc(NC(=O)Nc4ccc(C(=O)OC)cc4)cc3)nc2N2C3CCC2COC3)C1`: the IC50 came to 1280 nM.

Compound `COC(=O)N1CCc2c(nc(-c3ccc(NC(=O)Nc4ccncc4)cc3)nc2N2C3CCC2COC3)C1` registered an IC50 of 377 nM.

In turn, `COCCN1CCc2c(nc(-c3ccc(NC(=O)Nc4ccncc4)cc3)nc2N2CC3CCC(C2)O3)C1` registered a 50% inhibitory concentration (IC50) of 101 nM.

`CCN1CCc2c(nc(-c3ccc(NC(=O)Nc4ccc(N5CCN(C)CC5)cc4)cc3)nc2N2C3CCC2COC3)C1` yielded an IC50 of 1920 nM. This IC50 is about 19-fold higher than that of the compound before.

For `CCN1CCc2c(nc(-c3ccc(NC(=O)NCCF)cc3)nc2N2C3CCC2COC3)C1`, the concentration for half-maximal inhibition (IC50) was 5780 nM.

`CCN1CCc2c(nc(-c3ccc(NC(=O)Nc4ccc(C(=O)O)cc4)cc3)nc2N2C3CCC2COC3)C1`: the IC50 was 4130 nM.

The compound `CCN1CCc2c(nc(-c3ccc(NC(=O)Nc4ccc(N5CCC(N(C)C)CC5)cc4)cc3)nc2N2C3CCC2COC3)C1` displayed a half-maximal inhibitory concentration (IC50) of 1070 nM.

The compound `CC(C)N1CCc2c(nc(-c3ccc(NC(=O)Nc4ccncc4)cc3)nc2N2CC3CCC(C2)O3)C1` showed an IC50 of 2030 nM.

As to `CCN1CCc2c(nc(-c3ccc(NC(=O)Nc4ccc(C(N)=O)cc4)cc3)nc2N2C3CCC2COC3)C1`, the concentration for half-maximal inhibition (IC50) was 1010 nM.

`O=C(Nc1ccncc1)Nc1ccc(-c2nc3c(c(N4C5CCC4COC5)n2)CC[N+](CCF)(CCF)C3)cc1`: the half-maximal inhibitory concentration (IC50) was 1870 nM.

The compound `O=C(Nc1ccncc1)Nc1ccc(-c2nc3c(c(N4CC5CCC(C4)O5)n2)CCN(CCF)C3)cc1` had an IC50 of 330 nM.

Take `CN(C)CC(=O)N1CCc2c(nc(-c3ccc(NC(=O)Nc4ccncc4)cc3)nc2N2C3CCC2COC3)C1`: the half-inhibitory concentration (IC50) turned out to be 807 nM. This IC50 is about 2.4-fold higher than that of the compound before.

The compound `CC(C)(C)OC(=O)N1CCc2c(nc(-c3ccc(NC(=O)Nc4ccncc4)cc3)nc2N2CC3CCC(C2)O3)C1` showed an IC50 of 459 nM.

In turn, `CCN1CCc2c(nc(-c3ccc(NC(=O)NC4CC4)cc3)nc2N2C3CCC2COC3)C1` displayed a half-inhibitory concentration (IC50) of 4850 nM. This IC50 is about 11-fold higher than that of the compound before.

Another assay deals with PIK3CG (human) (UniProt P48736). Description: Assessment of PIK3CG Kinase Activity.
PIK3CG (human), sequence (P48736 whole entry, looked up): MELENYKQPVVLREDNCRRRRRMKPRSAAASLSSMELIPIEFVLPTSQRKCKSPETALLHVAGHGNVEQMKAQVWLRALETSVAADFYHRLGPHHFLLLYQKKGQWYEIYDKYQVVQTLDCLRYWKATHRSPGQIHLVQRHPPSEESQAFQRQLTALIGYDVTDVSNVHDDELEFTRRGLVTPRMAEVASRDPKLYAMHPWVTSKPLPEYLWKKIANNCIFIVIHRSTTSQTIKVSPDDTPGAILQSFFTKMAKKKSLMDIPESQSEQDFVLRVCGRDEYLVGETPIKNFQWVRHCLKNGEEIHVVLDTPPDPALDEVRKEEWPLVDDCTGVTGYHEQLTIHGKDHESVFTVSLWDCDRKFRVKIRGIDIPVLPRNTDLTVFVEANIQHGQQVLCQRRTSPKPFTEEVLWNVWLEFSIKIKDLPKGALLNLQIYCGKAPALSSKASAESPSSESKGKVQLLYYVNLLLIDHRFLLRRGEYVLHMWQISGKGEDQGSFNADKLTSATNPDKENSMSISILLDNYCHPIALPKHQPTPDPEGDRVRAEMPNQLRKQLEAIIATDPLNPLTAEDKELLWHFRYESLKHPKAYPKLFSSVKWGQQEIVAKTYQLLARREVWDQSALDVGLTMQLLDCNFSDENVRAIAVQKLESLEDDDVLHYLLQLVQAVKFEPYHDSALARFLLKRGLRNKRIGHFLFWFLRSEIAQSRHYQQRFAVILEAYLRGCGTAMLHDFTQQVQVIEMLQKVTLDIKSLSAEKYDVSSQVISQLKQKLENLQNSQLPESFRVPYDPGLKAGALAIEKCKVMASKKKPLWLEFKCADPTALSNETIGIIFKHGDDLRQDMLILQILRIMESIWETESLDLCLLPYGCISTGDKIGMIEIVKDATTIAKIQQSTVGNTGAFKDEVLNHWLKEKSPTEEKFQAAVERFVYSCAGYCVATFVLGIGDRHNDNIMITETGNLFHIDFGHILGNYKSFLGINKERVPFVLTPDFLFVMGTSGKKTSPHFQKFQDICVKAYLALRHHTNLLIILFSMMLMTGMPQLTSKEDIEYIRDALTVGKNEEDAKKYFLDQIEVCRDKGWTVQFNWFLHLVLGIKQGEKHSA
`CNC(=O)Nc1ccc(-c2nc3c(c(N4CC5CCC(C4)O5)n2)CCN(C(=O)c2ccccc2F)C3)cc1` displayed a 50% inhibitory concentration (IC50) of 360 nM.

In the case of `CCCCC(=O)N1CCc2c(nc(-c3ccc(NC(=O)NC)cc3)nc2N2CC3CCC(C2)O3)C1`, the IC50 stood at 545 nM.

`CCCCNC(=O)N1CCc2c(nc(-c3ccc(NC(=O)NC)cc3)nc2N2CC3CCC(C2)O3)C1` registered a half-inhibitory concentration (IC50) of 375 nM. This IC50 and that of the compound before are within 1.5-fold of each other.

Compound `CNC(=O)Nc1ccc(-c2nc3c(c(N4CC5CCC(C4)O5)n2)CCN(C(=O)NC2CCCCC2)C3)cc1` gave a half-inhibitory concentration (IC50) of 600 nM.

Regarding `CCCCOC(=O)N1CCc2c(nc(-c3ccc(NC(=O)NC)cc3)nc2N2CC3CCC(C2)O3)C1`, the IC50 came to 375 nM.

Compound `CNC(=O)Nc1ccc(-c2nc3c(c(N4CC5CCC(C4)O5)n2)CCN(S(=O)(=O)c2ccc(Cl)cc2)C3)cc1` yielded an IC50 of 3100 nM.

For the compound `CNC(=O)Nc1ccc(-c2nc3c(c(N4CC5CCC(C4)O5)n2)CCN(S(=O)(=O)c2ccccc2)C3)cc1`, the IC50 was found to be 205 nM. This IC50 is about 15-fold lower than that of the compound before.

Take `CNC(=O)Nc1ccc(-c2nc3c(c(N4CC5CCC(C4)O5)n2)CCN(S(=O)(=O)c2ccc(F)cc2)C3)cc1`: the 50% inhibitory concentration (IC50) stood at 600 nM.

The compound `CNC(=O)Nc1ccc(-c2nc3c(c(N4CC5CCC(C4)O5)n2)CCN(C(=O)OCC(C)C)C3)cc1` registered an IC50 of 350 nM.

With `C=CCNC(=O)N1CCc2c(nc(-c3ccc(NC(=O)NC)cc3)nc2N2CC3CCC(C2)O3)C1`, the half-inhibitory concentration (IC50) came out at 375 nM.

`CCCCCCNC(=O)N1CCc2c(nc(-c3ccc(NC(=O)NC)cc3)nc2N2CC3CCC(C2)O3)C1` had an IC50 of 195 nM.

On to `CCCCC(CC)C(=O)N1CCc2c(nc(-c3ccc(NC(=O)NC)cc3)nc2N2CC3CCC(C2)O3)C1` (stereo not drawn), for which the IC50 came out at 270 nM.

The compound `CNC(=O)Nc1ccc(-c2nc3c(c(N4CC5CCC(C4)O5)n2)CCN(C(=O)c2c(F)cccc2F)C3)cc1` registered an IC50 of 300 nM.

`CNC(=O)Nc1ccc(-c2nc3c(c(N4CC5CCC(C4)O5)n2)CCN(C(=O)CCC2CCCC2)C3)cc1`: the IC50 stood at 1050 nM.

As to `CNC(=O)Nc1ccc(-c2nc3c(c(N4CC5CCC(C4)O5)n2)CCN(C(=O)c2ccc(C(C)(C)C)cc2)C3)cc1`, the IC50 stood at 3350 nM.

The compound `CNC(=O)Nc1ccc(-c2nc3c(c(N4CC5CCC(C4)O5)n2)CCN(C(=O)NC(C)(C)C)C3)cc1` came in with an IC50 of 375 nM.

`CNC(=O)Nc1ccc(-c2nc3c(c(N4CC5CCC(C4)O5)n2)CCN(C(=O)COC)C3)cc1` came in with an IC50 of 830 nM.

In turn, `CCCCCCC(=O)N1CCc2c(nc(-c3ccc(NC(=O)NC)cc3)nc2N2CC3CCC(C2)O3)C1` showed a half-maximal inhibitory concentration (IC50) of 960 nM.

`CNC(=O)Nc1ccc(-c2nc3c(c(N4CC5CCC(C4)O5)n2)CCN(C(=O)C(C)(C)C)C3)cc1` returned a 50% inhibitory concentration (IC50) of 300 nM. Compared with the last compound, the IC50 is about 3.2-fold lower.

On to `CNC(=O)Nc1ccc(-c2nc3c(c(N4CC5CCC(C4)O5)n2)CCN(C(=O)c2ccccc2OC)C3)cc1`, for which the IC50 was found to be 900 nM.

For `CNC(=O)Nc1ccc(-c2nc3c(c(N4CC5CCC(C4)O5)n2)CCN(S(=O)(=O)c2ccc(C#N)cc2)C3)cc1`, the IC50 stood at 4000 nM.

`CNC(=O)Nc1ccc(-c2nc3c(c(N4CC5CCC(C4)O5)n2)CCN(S(=O)(=O)N(C)C)C3)cc1` had an IC50 of 190 nM.

As usually defined, the IC50 is the point on the concentration scale where inhibition reaches its midpoint. High values mean a need for much substance, low ones inhibition by little substance.
